Data as given in US20140329863A1 (priority 2011, published 2014).
Values joined by “and” are separate entries in the source; they are usually repeats but may differ in a detail not shown here. Equal entries are not always repeated. Where two headings read alike, the source gives them in different places.

Legend:
[1] = system: PrP^Sc in dividing ScN2a-cl3 cells; type: cell-based, mouse; design: Dividing ELISA pEC50 (μM) 1st Expt. / Dividing ELISA pEC50 (μM) 2nd Expt. / Dividing ELISA pEC50 (μM) 3rd Expt. / Dividing ELISA pEC50 (μM) Mean: unit not given here
in vitro = conditions: mouse
[2] = system: PrP^Sc in ScN2a-cl3 cells; type: cell-based, mouse; conditions: Western immunoblots
N2a-cl3 cells [3] = conditions: mouse
N2a-cl3 cells [4] = experiment: cells; conditions: Mus musculus, N2a-cl3, read-out: Dividing Calcein EC50 (μM) Mean (n = 3)
[5] = system: PrP^Sc in nondividing ScN2a-cl3 cells; type: cell-based, mouse; conditions: read-out: Non-Dividing ELISA EC50 (μM) Mean (n = 3); ScN2a-c13 non-dividing cells; mean n = 3
[6] = Hepatic microsomal stability, rat; conditions: […]
[7] = read-out: Antiprion activity EC50, thienopyridine analogs
[8] = read-out: EC50 (nM): ELISA, dividing ScN2a-cl3 cells
[9] = read-out: Potency (nM) ELISA (EC50), PrP^Sc ELISA, dividing ScN2a-cl3 cells
[10] = read-out: EC50 (nM): Western, ScN2a-cl3 cells
[11] = read-out: Potency (nM) Western (EC50), dividing ScN2a-cl3 cells
[12] = ScN2a-cl3 dividing cells, 1st determination
[13] = ScN2a-cl3 dividing cells, 2nd determination
[14] = ScN2a-cl3 dividing cells, 3rd determination
[15] = ScN2a-cl3 dividing cells, mean of three determinations
[16] = read-out: Dividing ELISA EC50 (μM) 1st Expt., ScN2a-cl3 dividing cells, 1st determination
[17] = read-out: Dividing ELISA EC50 (μM) 2nd Expt., ScN2a-cl3 dividing cells, 2nd determination
[18] = read-out: Dividing ELISA EC50 (μM) 3rd Expt., ScN2a-cl3 dividing cells, 3rd determination
[19] = read-out: Dividing ELISA EC50 (μM) Mean, ScN2a-cl3 dividing cells, mean of three determinations

Row | Compound | EC50 [1, 7] | CC50 (in vitro) [µM] | EC50 (N2a-cl3 cells [4]) [µM] | EC50 [1, 16] [nM] | EC50 [1, 17] [nM] | EC50 [1, 18] [nM] | EC50 [1, 19] [nM] | EC50 [5] [µM] | further results
1 | COc1ccc(-c2ccc3c(N)c(C(=O)Nc4ccc(F)cc4)sc3n2)cc1OC [IND-0044746] | 227 nM | > 10 |  |  |  |  |  |  | 
2 | COc1ccc(NC(=O)c2sc3nc(-c4cccs4)ccc3c2N)cc1OC [IND-0024573] | 396 nM | > 10 |  |  |  |  |  |  | 
3 | CSc1ccc(NC(=O)c2sc3nc(-c4cccs4)ccc3c2N)cc1 [IND-0024576] | 77 nM | > 10 |  |  |  |  |  |  | 
4 | c1cncc(-c2nc(-c3c[nH]c4ccccc34)cs2)c1 [IND-0024350] |  | > 10 |  |  |  |  |  |  | EC50 [1, 8]: 321 nM; EC50 [1, 9]: 321 nM; EC50 [2, 10]: 828 nM; EC50 [2, 11]: 828 nM; EC50 (nM): Calcein (LC50 values from calcein assays) (N2a-cl3 cells [3]): MW: 277.3 EC50 (nM): ELISA: 321 Calcein: >10,000 Western: 828
5 | O=C(Nc1nc(-c2ccc3ccccc3c2)cs1)C1CC1 [IND-0030883] |  | > 10 |  |  |  |  |  |  | EC50 [1, 9]: 913 nM; EC50 [2, 11]: 570 nM
6 | CCc1ccc(-c2cn3cc(C)sc3n2)cc1 [IND-0009416] |  | > 10 |  |  |  |  |  |  | EC50 [1, 8]: 1780 nM; EC50 [1, 9]: 1780 nM; EC50 [2, 10]: 517 nM; EC50 [2, 11]: 517 nM; EC50 (nM): Calcein (LC50 values from calcein assays) (N2a-cl3 cells [3]): MW: 242.3 EC50 (nM): ELISA: 1776 Calcein: >10,000 Western: 517
7 | Nc1c(C(=O)Nc2cc(F)ccc2F)sc2nc(-c3cccs3)ccc12 [IND-0024581] | 2060 nM | > 10 |  |  |  |  |  |  | 
8 | Cc1ccc(Nc2nc(-c3ccccc3)cs2)nc1 [compound 25, (5-Methylpyridin-2-yl)-(4-phenylthiazol-2-yl)-amine] |  |  | > 32 | 13000 | 4900 | 5740 | 7880 | > 32 | Dividing ELISA pEC50 (μM) 1st Expt. [1, 12]: 4.89; Dividing ELISA pEC50 (μM) 2nd Expt. [1, 13]: 5.31; Dividing ELISA pEC50 (μM) 3rd Expt. [1, 14]: 5.24; Dividing ELISA pEC50 (μM) Mean [1, 15]: 5.15; EC50 ([1]; read-out: Antiprion activity ScN2a-cl3 EC50, ScN2a-cl3 cells): 7880 nM; Microsome stability T1/2 [6]: 10 min
9 | COc1ccc(-c2ccc3c(N)c(C(=O)NCCc4ccc(OC)c(OC)c4)sc3n2)cc1 [IND-0037771] | 419 nM | > 10 |  |  |  |  |  |  | 
10 | Nc1c(C(=O)Nc2ccc(F)cc2)sc2nc(-c3ccc4c(c3)OCO4)ccc12 [IND-0042063] | 613 nM | > 10 |  |  |  |  |  |  | 
11 | COc1ccc(-c2ccc3c(N)c(C(=O)Nc4ccc5c(c4)OCCO5)sc3n2)cc1 [IND-0035833] | > 10000 nM | > 10 |  |  |  |  |  |  | 
12 | COc1ccc(-c2ccc3c(N)c(C(=O)Nc4ccc(F)cc4)sc3n2)cc1 [IND-0035860] | 57 nM and 59 nM | > 10 |  |  |  |  |  |  | 
13 | COc1ccc(-c2ccc3c(N)c(C(=O)Nc4ccc(C(C)=O)cc4)sc3n2)cc1 [IND-0037769] | 97 nM | > 10 |  |  |  |  |  |  | 
14 | CC(=O)c1ccc(N2CCN(Cc3cccnc3)CC2)cc1 [IND-0018629] |  | > 10 |  |  |  |  |  |  | EC50 [2, 10]: 886 nM; EC50 [2, 11]: 886 nM; EC50 (nM): Calcein (LC50 values from calcein assays) (N2a-cl3 cells [3]): MW: 295.4 EC50 (nM): ELISA: 2943 Calcein: >10,000 Western: 886
15 | COc1ccc(Nc2nc(-c3ccc(OC)c(OC)c3)cs2)nc1 [compound 13, [4-(3,4-dimethoxyphenyl)-thiazol-2-yl]-(5-methoxypyridin-2-yl)-amine] |  |  | > 32 |  |  | 917 |  | > 32 | Microsome stability T1/2 [6]: 45 min
16 | COc1ccc(-c2csc(Nc3ccc(C)cn3)n2)cc1 [compound 21, [4-(4-Methoxyphenyl)-thiazol-2-yl]-(5-methylpyridin-2-yl)-amine] |  |  | > 32 | 5020 | 1890 | 2190 | 3030 | > 32 | Dividing ELISA pEC50 (μM) 1st Expt. [1, 12]: 5.30; Dividing ELISA pEC50 (μM) 2nd Expt. [1, 13]: 5.72; Dividing ELISA pEC50 (μM) 3rd Expt. [1, 14]: 5.66; Dividing ELISA pEC50 (μM) Mean [1, 15]: 5.56; melting point: 246 to 248 °C
17 | COc1ccc(-c2csc(Nc3ccccn3)n2)cc1OC [compound 6, [4-(3,4-dimethoxyphenyl)-thiazol-2-yl]pyridin-2-yl-amine] |  |  | > 32 | 11800 | 6470 | 6380 | 8220 | > 32 | melting point: 211 to 214 °C
18 | COc1ccc(NC(=O)c2csc(Nc3ccc(C)cn3)n2)cc1OC [compound 46, 2-(5-Methylpyridin-2-ylamino)-thiazole-4-carboxylic acid (3,4-dimethoxyphenyl)-amide] |  |  | > 32 | 3190 | 1930 | 2200 | 2440 | > 32 | Dividing ELISA pEC50 (μM) 1st Expt. [1, 12]: 5.50; Dividing ELISA pEC50 (μM) 2nd Expt. [1, 13]: 5.72; Dividing ELISA pEC50 (μM) 3rd Expt. [1, 14]: 5.66; Dividing ELISA pEC50 (μM) Mean [1, 15]: 5.62; melting point: 212 to 214 °C
19 | COc1ccc(CNC(=O)c2sc3nc(-c4ccc(OC)cc4)ccc3c2N)cc1 [IND-0040541] | > 10000 nM | > 10 |  |  |  |  |  |  | 
20 | COc1cc(NC(=O)c2sc3nc(-c4cccs4)ccc3c2N)cc(OC)c1OC [IND-0042103] | > 10000 nM | > 10 |  |  |  |  |  |  | 
21 | COc1ccc(-c2csc(Nc3ncccn3)n2)cc1OC [compound 10, [4-(3,4-dimethoxyphenyl)-thiazol-2-yl]pyrimidin-2-yl-amine] |  |  | > 32 | 3250 | 6710 | 1850 | 3940 | > 32 | Dividing ELISA pEC50 (μM) 1st Expt. [1, 12]: 5.49; Dividing ELISA pEC50 (μM) 2nd Expt. [1, 13]: 5.17; Dividing ELISA pEC50 (μM) 3rd Expt. [1, 14]: 5.73; Dividing ELISA pEC50 (μM) Mean [1, 15]: 5.46; melting point: 225 to 228 °C
22 | Cc1ccc(Nc2nc(-c3ccccn3)cs2)nc1 [compound 24, (5-Methylpyridin-2-yl)-(4-pyridin-2-yl-thiazol-2-yl)-amine] |  |  | 0.389 | 1620 | 507 | 449 | 860 | > 32 | melting point: 184 to 190 °C
23 | COc1ccc(-c2csc(Nc3cc(C)ccn3)n2)cc1OC [compound 16, [4-(3,4-dimethoxyphenyl)-thiazol-2-yl]-(4-methylpyridin-2-yl)-amine] |  |  | > 32 | 1130 | 736 | 1130 | 1000 | > 32 | Dividing ELISA pEC50 (μM) 1st Expt. [1, 12]: 5.95; Dividing ELISA pEC50 (μM) 2nd Expt. [1, 13]: 6.13; Dividing ELISA pEC50 (μM) 3rd Expt. [1, 14]: 5.95; Dividing ELISA pEC50 (μM) Mean [1, 15]: 6.01; melting point: 211 to 213 °C
24 | COc1ccc(-c2csc(N(C(C)=O)c3cc4ccccc4cn3)n2)cc1OC [compound 50, N-[4-(3,4-dimethoxyphenyl)-thiazol-2-yl]-N-isoquinolin-3-yl-acetamide] |  |  | > 10 | 91 | 89 | 65 | 82 | > 10 | Dividing ELISA pEC50 (μM) 1st Expt. [1, 12]: 7.04; Dividing ELISA pEC50 (μM) 2nd Expt. [1, 13]: 7.05; Dividing ELISA pEC50 (μM) 3rd Expt. [1, 14]: 7.19; Dividing ELISA pEC50 (μM) Mean [1, 15]: 7.09; melting point: 164 to 165 °C
